Columns and labels:
[1] = tested on: Mice (C57/B6J, 8 weeks old male) fed with high-fat food
Source text: Mice (C57/B6J, 8 weeks old male) were divided into 4 groups (5 animals each), and the first group (DB) was freely fed with ordinary food (CertifiedDiet “MF” manufactured by Oriental Yeast Co., ltd.). The second group (HFD) was freely fed with high-fat food (High Fat Diet 32, manufactured by CLEA Japan, Inc.), […].
When the mouse was 20 weeks old, the body weight, the liver weight, the serum aspartate aminotransferase (AST), the alanine aminotransferase (ALT), the serum triglyceride (TG), the free fatty acid value (FFA) and the total cholesterol value (T-cho) were measured.

[2] = tested on: subjects who had NAFLD in 31 IU/L or more of ALT
[3] = HFD6 (6 mg/kg/day) and HFD60 (60 mg/kg/day) groups in comparison to the HFD group, 20 weeks old

## N[C@@H](CCC(=O)N[C@@H](CS)C(=O)NCC(=O)O)C(=O)O [glutathione]
[1]; 6 versus 60 mg/kg/day glutathione
  serum AST, ALT, TG, FFA, T-cho: comparison of HFD6 group and HFD60 group: decrease dependently on the concentration
[1]; [3]
  serum ALT: significant decrease
  serum AST: significant decrease
  serum FFA (free fatty acid value): significant decrease
  serum T-cho (total cholesterol value): significant decrease
  serum TG (triglyceride value): significant decrease
[1]; concluded from liver weight and liver/body weight ratio
  deposition of fat on the liver by high-fat food: suppressed
[1]; high-fat food mice, glutathione 6 and 60 mg/kg/day in water, 20 weeks old
  liver weight: decreased dependently on the concentration
[1]; high-fat food mice, glutathione 6 or 60 mg/kg/day in water
  body weight: decrease of the body weight was recognized
[2]; Case IDs 1 to 9 (group affected), at least one week after initiation of administration
  improvement of ALT after the administration in comparison to ALT before the administration (0 wk): ≥ 20%
[2]; after treatment, oral glutathione 300 mg per day, one subject (Case ID) per table row
  FibroScan (after treatment) CAP: 280 dBe

From patent US20220072083A1, “COMPOSITION FOR IMPROVING OR PREVENTING NONALCOHOLIC FATTY LIVER” (KOHJIN LIFE SCIENCES CO., LTD., priority 2015, published 2022)
